Measured values reported in patent US7241803B2, “Compounds for inhibition of HIV infection by blocking HIV entry” (New York Blood Center, priority 2002, dated 2007).
≈ marks a conversion by molar mass, not a printed value.

Experiments:
N36/C34 mixture = N36/C34 mixture (Human immunodeficiency virus type 1 group M subtype B, UniProt P04578); details: 100 μg/ml
Protocol: Circular dichroism (CD) spectroscopy. A test compound at graded concentrations was incubated with N36 in phosphate buffer (pH 7.2) at 37° C. for 30 min before addition of C34 in the same buffer at equimolar concentration. After incubation at 37° C. for 30 min, the mixture was cooled down and CD spectra of the mixture were measured on the J-715 CD spectrometer equipped with a thermoelectric temperature controller (Jasco, Japan). The instrument was calibrated using a two point calibration method with (+)-10-camphorsulfonic acid. The wavelength dependence of molar ellipticity (θ) was monitored at 0° C. by 5 scans in 1 nm increments with a sampling time of 10 seconds as previously described (12, 51). The CD signal at 222 nm was measured as a function of temperature. Thermal melts were performed in 2° C. steps, with 2 min of equilibration at each temperature and an acquisition time of 0.5 min. The midpoint of the thermal unfolding transition (Tm) was estimated from the maximum of the first derivative of the CD signal at 222 nm (1).

[1] = test system: 5.25M7 & PBMCs infected by 93IN101 (clade C, R5)
Protocol: (§1) Inhibition of fusion between PBMCs infected by primary HIV-1 strains (X4 and R5 viruses) with CEMx174 5.25 M7 cells, which express CD4 and both coreceptors, CXCR4 and CCR5, was determined by a luciferase assay. Briefly, 50 μl of compound at graded concentration in triplicate was incubated with equal volume of PHA-stimulated PBMCs (1×10^5/ml) infected by corresponding primary HIV-1 strains, respectively, for 7 days as described above. After incubation at 37° C. for 30 min, 100 μl of CEMx174 5.25 M7 cells (2×10^5) were added and incubated at 37° C. for three days. The cells were collected, washed, and lysed with the lysing reagent included in the luciferase kit (Promega, Corp., Madison, Wis.). Aliquots of cell lysates were transferred to 96-well flat-bottom luminometer plates (Costar, Corning Inc., Corning, N.Y.), followed by addition of luciferase substrate (Promega). The luciferase activity was measured in the Ultra 384 luminometer (Tecan).

[2] = test system: 5.25M7 & PBMCs infected by 93UG065 (clade D, X4R5)
Protocol: as §1

[3] = test system: 5.25M7 & PBMCs infected by 93BR020 (clade F, X4R5)
Protocol: as §1

[4] = test system: 5.25M7 & PBMCs infected by CMU02 (clade E, R5)
Protocol: as §1

[5] = test system: 5.25M7 & PBMCs infected by BCF02 (Group O, R5)
Protocol: as §1

[6] = test system: 5.25M7 & PBMCs infected by 92UG657 (clade B, R5)
Protocol: as §1

[7] = test system: 5.25M7 & PBMCs/SF162 (clade B, R5)
Protocol: as §1

[8] = test system: 5.25M7 & PBMCs infected by 92UG029 (clade A, X4)
Protocol: as §1

[9] = test system: 5.25M7 & PBMCs infected by 93TH051 (clade E, X4R5)
Protocol: as §1

HIV-1 RF (clade B, X4) = experiment: infection by laboratory-adapted HIV-1 strain, p24 production; type: cell-based
Protocol: Assessment of anti-HIV-1 infectivity. The inhibitory activity of compounds on infection by laboratory-adapted HIV-1 strains was determined as previously described (18). In brief, 1×10^4 MT-2 cells were infected with HIV-1 at 100 TCID50 (50% tissue culture infective dose) in 200 μl of RPMI 1640 medium containing 10% FBS in the presence or absence of compounds at graded concentrations overnight. For the time-of-addition assay, compounds were added at various time post-infection. Then the culture supernatants were removed and fresh media were added. On the fourth day post-infection, 100 μl of culture supernatants were collected from each well, mixed with equal volumes of 5% Triton X-100 and assayed for p24 antigen, which was quantitated by ELISA (51). Briefly, the wells of polystyrene plates (Immulon 1B, Dynex Technology, Chantilly, Va.) were coated with HIV immunoglobulin (HIVIG), which was prepared from plasma of HIV-seropositive donors with high neutralizing titers against HIV-1IIIB as previously described (44) in 0.085 M carbonate-bicarbonate buffer (pH 9.6) at 4° C. overnight, followed by washes with PBS-T buffer (0.01M PBS containing 0.05% Tween-20) and blocking with PBS containing 1% dry fat-free milk (Bio-Rad Inc., Hercules, Calif.). Virus lysates were added to the wells and incubated at 37° C. for 1 h. […] Absorbance at 450 nm was recorded in an ELISA reader (Ultra 384, Tecan). […]

MT-2 cells = details: trypan blue, 2 hr
Protocol: Detection of in vitro cytotoxicity. The in vitro cytotoxicity of compounds for MT-2 cells was measured using trypan blue dye exclusion assay (41). Briefly, 100 μl of MT-2 cells (2×10^6/ml) were incubated with an equal volume of a compound diluted in culture media at graded concentrations at 37° C. for 2 hr. Ten microliters of cell suspension was transferred to a well of round-bottom plate and mixed with 10 μl of 0.04% trypan blue solution. The number of viable cells was counted using a hemocytometer under a microscope. The CC50 (the concentration for 50% cytotoxicity) values were calculated using the software Calcusyn (6).

CXCR4 = biological target: T1, CXCR4 (Homo sapiens, UniProt P61073); experiment: inhibition of anti-CXCR4 antibody 12G5 binding to CXCR4-expressing cells, cell-based ELISA; details: 25 μM
T1 construct: expressed in transfected cells; host or cells: U373-MAGI-CXCR4CEM cells
T1 sequence (P61073 whole entry): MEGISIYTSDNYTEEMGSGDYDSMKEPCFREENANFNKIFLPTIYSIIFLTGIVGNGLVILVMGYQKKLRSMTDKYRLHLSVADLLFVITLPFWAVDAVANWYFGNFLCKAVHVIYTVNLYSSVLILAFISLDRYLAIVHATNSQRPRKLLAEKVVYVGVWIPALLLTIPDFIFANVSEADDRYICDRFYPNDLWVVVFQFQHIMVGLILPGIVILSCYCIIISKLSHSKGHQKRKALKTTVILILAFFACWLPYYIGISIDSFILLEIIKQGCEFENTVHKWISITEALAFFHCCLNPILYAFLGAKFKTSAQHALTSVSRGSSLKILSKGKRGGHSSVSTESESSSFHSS
Protocol: Inhibition of anti-CXCR4 antibody binding to CXCR4-expressing cells. The inhibition of the binding of anti-CXCR4 antibody to CXCR4-expressing cells was determined using a cell-based ELISA as described previously (52). Briefly, U373-MAGI-CXCR4CEM cells (1×10^5/well) which express CXCR4 molecules were cultured in a 96-well plate at 37° C. overnight. The cells were fixed with 5% formaldehyde at room temperature for 15 min and washed with PBS-T. The cells were incubated with anti-CXCR4 mAb 12G5 at 37° C. for 1 h in the presence or absence of compounds tested. Isotype IgG2a was used as a control.

Chain of N36/C34 mixture (P04578 546-581): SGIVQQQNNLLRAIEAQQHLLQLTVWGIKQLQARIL

Cc1ccc(C)n1-c1ccc(C(=O)O)c(O)c1 [NB-2]
α-helicity of the N36/C34 mixture (N36/C34 mixture): significantly disrupted
IC50 (μg/ml) for inhibition of cell-cell fusion [1]: 3.27 ± 0.18 µg/mL
IC50 (μg/ml) for inhibition of cell-cell fusion [2]: 6.07 ± 0.07 µg/mL
IC50 (μg/ml) for inhibition of cell-cell fusion [3]: 1.66 ± 0.07 µg/mL
IC50 (μg/ml) for inhibition of cell-cell fusion [4]: 8.14 ± 1.09 µg/mL
IC50 (μg/ml) for inhibition of cell-cell fusion [5]: 0.93 ± 0.57 µg/mL
IC50 (μg/ml) for inhibition of cell-cell fusion [6]: 6.64 ± 1.13 µg/mL
IC50 (μg/ml) for inhibition of cell-cell fusion [7]: 4.86 ± 0.34 µg/mL
IC50 (μg/ml) for inhibition of cell-cell fusion [8]: 2.50 ± 0.02 µg/mL
IC50 (μg/ml) for inhibition of cell-cell fusion [9]: 1.76 ± 0.07 µg/mL
IC50 (μg/ml) for inhibition of p24 production (HIV-1 RF (clade B, X4)): 0.45 ± 0.04 µg/mL
CC50 (MT-2 cells): 305.60 ± 5.04 µg/mL (≈ 1320 µM)
inhibition of 12G5 binding to U373-MAGI-CXCR4CEM cells (CXCR4): no inhibitory activity

O=C(O)c1cc(-n2cccc2)ccc1Cl [NB-64]
α-helicity of the N36/C34 mixture (N36/C34 mixture): significantly disrupted
IC50 (μg/ml) for inhibition of cell-cell fusion [1]: 18.26 ± 0.01 µg/mL
IC50 (μg/ml) for inhibition of cell-cell fusion [2]: 20.77 ± 1.94 µg/mL
IC50 (μg/ml) for inhibition of cell-cell fusion [3]: 2.24 ± 0.31 µg/mL
IC50 (μg/ml) for inhibition of cell-cell fusion [4]: 4.89 ± 1.08 µg/mL
IC50 (μg/ml) for inhibition of cell-cell fusion [5]: 10.30 ± 5.90 µg/mL
IC50 (μg/ml) for inhibition of cell-cell fusion [6]: 39.00 ± 5.27 µg/mL
IC50 (μg/ml) for inhibition of cell-cell fusion [7]: 20.86 ± 0.20 µg/mL
IC50 (μg/ml) for inhibition of cell-cell fusion [8]: 2.21 ± 0.56 µg/mL
IC50 (μg/ml) for inhibition of cell-cell fusion [9]: 12.72 ± 0.32 µg/mL
IC50 (μg/ml) for inhibition of p24 production (HIV-1 RF (clade B, X4)): 0.96 ± 0.03 µg/mL
CC50 (MT-2 cells): >500 µg/mL
inhibition of 12G5 binding to U373-MAGI-CXCR4CEM cells (CXCR4): no inhibitory activity
